Here are results for 13 molecules from publication PMC10880909, “Correction: A high-throughput effector screen identifies a novel small molecule scaffold for inhibition of ten-eleven translocation dioxygenase 2” (RSC Medicinal Chemistry, 2024).

What is called IC50 is the concentration that inhibits the measured activity by half. A lower IC50 goes with greater potency.

The test concerns the target hTET2 (Homo sapiens, UniProt Q6N021). Nature of the test: MALDI-based inhibition assay of hTET2. Conditions: for hTET2 inhibition, result in words: additional SAR / re-synthesis.

Consider `Oc1cc2c(cc1O)CNCC2` [Compound 21, tetrahydroisoquinoline-6,7-diol], for which the IC50 amounted to 8.6 µM and the “hTET2 inhibition, result in words” value is “micromolar IC50 values”.

Molecule `O=S(=O)(NCCc1ccccc1)c1ccc(F)c2ncc(I)cc12` [Compound 14] gave an IC50 above 200 µM.

As for `O=S(=O)(Nc1cccc(O)c1)c1ccc(F)c2ncc(I)cc12` [Compound 16], the IC50 is above 200 µM.

In turn, `CC(C)OS(=O)(=O)c1ccc(F)c2ncc(I)cc12` [Compound 5] had an IC50 above 200 µM.

With `O=C(O)c1ncccc1O` [Compound 22, 3-hydroxypicolinic acid], inhibition was half-maximal at 48.6 µM (IC50) and the “hTET2 inhibition, result in words” value is on record as “micromolar IC50 values”.

Regarding `CNS(=O)(=O)c1ccc(F)c2ncc(I)cc12` [Compound 9], the IC50 was above 200 µM.

`CCCCCOS(=O)(=O)c1ccc(F)c2ncc(I)cc12` [Compound 6] registered an IC50 above 200 µM.

The molecule `O=S(=O)(Nc1ccccc1)c1ccc(F)c2ncc(I)cc12` [Compound 11] registered an IC50 above 200 µM.

On to `NS(=O)(=O)c1ccc(F)c2ncc(I)cc12` [Compound 8], for which the IC50 was above 200 µM.

On to `O=C(O)c1ccc(F)c2ncccc12` [Compound 19], for which the IC50 is above 200 µM and the “hTET2 inhibition, result in words” value was “inactivity”.

For `O=S(=O)(O)c1ccc(O)c2ncccc12` [Compound 18], inhibition was half-maximal at 12.1 ± 4.2 µM (IC50).

With `O=S(=O)(NCc1ccccc1)c1ccc(F)c2ncc(I)cc12` [Compound 13], the IC50 was above 200 µM.

In the case of `O=S(=O)(c1ccc(F)c2ncc(I)cc12)N1CCCC1` [Compound 10], the concentration for half-maximal inhibition (IC50) is above 200 µM.
